Reference: US8258096B2, “Therapy procedure for drug delivery for trigeminal pain” (The Board of Trustees of the Leland Stanford Junior …, priority 2005, dated 2012)

How the values were obtained:
Format in all cases: in vivo
[1] = test system: trigeminal nucleus caudalis wide dynamic range (WDR) neurons; test: Electrical stimulation-induced responses of trigeminal nucleus caudalis WDR neurons; conditions: rat
Method: Male Sprague-Dawley rats (Charles River Laboratories) were anesthetized with isoflurane and used in the following experiments. In the anesthetized rats, single unit, extracellular recordings were performed in trigeminal nucleus caudalis while stimulating the ipsilateral facial skin with constant-current bipolar electrical stimulation. Epoxylate-insulated, tungsten microelectrodes (10 MOhm) were used under stereotaxic coordinate control.
Shown are responses (action potentials per 30 stimuli) to repeated stimulation of a rat's face before oxytocin administration (pre-oxytocin). After administration with oxytocin at approximately 0.1 IU, responses were recorded every five minutes for 65 minutes. A second administration of oxytocin at the same dosage was administered at approximately 70 minutes after the first dose. The approximate site of the administration of the electrical stimulation is indicated by the black spot on a map of the rat's face (FIG. 3B).

[2] = test system: single pain sensing nerve cells in the trigeminal ganglion; test: Nerve impulses of single trigeminal ganglion neurons in response to noxious laser pulses to the face; conditions: rat, 10 nmoles applied to the nose, FIG. 2
Method: Sprague-Dawley rats (Charles River Laboratories) were anesthetized with isofluorane and a platinum electrode was inserted transcranially into the trigeminal ganglion. Nerve impulses (action potential) were recorded from single pain sensing nerve cells in the trigeminal ganglion in response to application of noxious laser pulses to the face of the rats. After recording responses to several identical laser pulses, 10 nmoles of oxytocin was applied to the nose of the rats. Thereafter, identical laser pulses were once again applied and recorded.

[3] = test system: trigeminal nucleus caudalis wide dynamic range (WDR) neurons; test: Long-pulse laser-induced responses of trigeminal nucleus caudalis WDR neurons; conditions: rat, intranasal 0.025 ml of 0.05 mg/ml
Method: Male Sprague-Dawley rats (Charles River Laboratories) were anesthetized with isoflurane and used in the following experiments. In the anesthetized rats, single unit, extracellular recordings were performed in trigeminal nucleus caudalis while stimulating the ipsilateral facial skin with diode laser or constant-current bipolar electrical stimulation. Epoxylate-insulated, tungsten microelectrodes (10 MOhm) were used under stereotaxic coordinate control. […] Shown are responses (action potentials per second) to an 8 second-duration, 425 mA intensity laser stimulus to the site indicated by the black spot on a map of the rat's face (FIG. 4E).

[4] = test system: second-order neurons in the trigeminal nucleus caudalis; test: Electrical stimulus-induced windup; conditions: rat, intranasal 0.025 ml of 0.05 mg/ml
Excerpt: Male Sprague-Dawley rats (Charles River Laboratories) were anesthetized with isoflurane and used in the following experiments. […] Needle electrodes were inserted subcutaneously at the site indicated in FIG. 5A by the black spot on the rat's head, and the skin was stimulated at 0.66 Hz, 2 msec duration, 3×C-fiber threshold for >25 times.

Sprague-Dawley rats = test: Withdrawal latencies after noxious laser thermal stimulation of ears or hindpaws after intranasal administration; conditions: rat, intranasal 10 nmoles/kg, tested from five minutes after final application
Excerpt: One way to test activity of an analgesic agent in a rat model is by treatment-induced changes in latencies (times) of withdrawal in response to noxious heating of the skin, typically using an ear, the face or a hindpaw. Thus, application of coherent or non-coherent (non-laser) radiant heat to the ear, the face or hindpaw will elicit rapid withdrawal movements. […] Transmucosal or transdermal administration of analgesic agents to the trigeminal nerve to reduce trigeminal nerve-associated pain can be tested for regional and/or systemic analgesia. The rostral external part of a rat's ear is innervated by a branch of the mandibular nerve, itself a branch of the trigeminal nerve, thus after treatment an increase in latency to withdrawal time would indicate regional analgesia. […]
Sprague-Dawley rats (Charles River Laboratories) were lightly anesthetized with urethane and placed with minimal restraint on a heating pad to maintain their body temperature at 37° C. […] Baseline withdrawal latencies were measured by delivering 4 separate stimuli with a resting period of approximately 15 minutes between each stimulus. […] As described above, testing sessions were videotaped and analyzed.

[5] = intranasal approximately 0.1 IU, first dose
[6] = second intranasal dose approximately 0.1 IU at approximately 70 minutes after the first

**Q.** Which “responses (action potentials per 30 stimuli) after first administration” value ([1]; intranasal approximately 0.1 IU, electrical stimulation of face, FIG. 3A) does the source give for `CC[C@H](C)[C@@H]1NC(=O)[C@H](Cc2ccc(O)cc2)NC(=O)[C@@H](N)CSSC[C@@H](C(=O)N2CCC[C@H]2C(=O)N[C@@H](CC(C)C)C(=O)NCC(N)=O)NC(=O)[C@H](CC(N)=O)NC(=O)[C@H](CCC(N)=O)NC1=O` [Oxytocin, Cys-Tyr-Ile-Gln-Asn-Cys-Pro-Leu-Gly] here?
**A.** significant reduction in responses

**Q.** What about the “time after first administration at which reduction in responses began” value [1, 5] of the same compound?
**A.** 10 min

**Q.** And the “time post treatment until which reduction continued (responses then began to increase)” value [1, 5]?
**A.** 50 min

**Q.** And the “responses (action potentials per 30 stimuli) after second administration” value [1, 6]?
**A.** significant reduction in responses

**Q.** What about the “time to reduction in responses after second administration” value [1, 6] of the same compound?
**A.** ≤ 10 min

**Q.** And the “neuronal response (average nerve impulses per laser pulse), post- vs pre-treatment” value [2]?
**A.** significantly (p<0.05) reduced

**Q.** Which “response five minutes post-treatment” value ([3]; 8 second 425 mA laser stimulus, 5 minutes, FIG. 4B) does the source give for `C[C@@H](O)[C@@H]1NC(=O)[C@H](CCCCN)NC(=O)[C@@H](Cc2c[nH]c3ccccc23)NC(=O)[C@H](Cc2ccccc2)NC(=O)[C@@H](NC(=O)[C@H](N)Cc2ccccc2)CSSC[C@@H](C(=O)N[C@H](CO)[C@@H](C)O)NC1=O` [octreotide] here?
**A.** no detectable reduction in response

**Q.** And the “response at 10 minutes post-treatment” value ([3]; 8 second 425 mA laser stimulus, 10 minutes, baseline 42 spikes)?
**A.** 5 spikes

**Q.** And the “reduction of response at 10 minutes post-treatment” value ([3]; 10 minutes vs pre-treatment baseline)?
**A.** 88%

**Q.** And the “response 25 minutes post-treatment” value ([3]; 25 minutes, FIG. 4D)?
**A.** recovered

**Q.** And the “reduction of total number of action potentials” value ([4]; 10 minutes after administration vs before)?
**A.** 19.4%

**Q.** What about the “total number of action potentials during the stimulation period” value ([4]; 10 minutes after administration, 25 stimulations at 0.66 Hz, 506 before treatment) of the same compound?
**A.** 408

**Q.** Which “regional analgesic effect (ear withdrawal latency)” value (Sprague-Dawley rats; laser to ears, FIG. 1A) does the source give for Tyr-Gly-Gly-Phe-Met [met-enkephalin] here?
**A.** achieved a regional analgesic effect in the head region

**Q.** What about the “systemic analgesic effect (hindpaw withdrawal latency)” value (Sprague-Dawley rats; laser to hindpaws, FIG. 1B) of the same compound?
**A.** without a systemic analgesic effect at the hindpaw
